These results are taken from PMC8267177, “Cyclic Peptoid-Peptide Hybrids as Versatile Molecular Transporters” (Frontiers in Chemistry, 2021).

Each structure is given as a SMILES string. “Also recorded” adds a separate entry of the source. Non-standard residues stand in square brackets, D forms with d. Residues, ends and D or L forms follow the SMILES beside them. *: point of attachment. RhodamineB = CCN(CC)c1ccc2c(-c3ccccc3C(=O)*)c3ccc(=[N+](CC)CC)cc-3oc2c1; Gly(Nα-4-Cl-benzyl) = O=C(O)CNCc1ccc(Cl)cc1; Nphe = O=C(O)CNCc1ccccc1; NBuGly = CCCCNCC(=O)O; Nlys = NCCCCNCC(=O)O

One data set is described as follows: in vitro. The data set is classed as cell-based. The conditions noted are these: human. The method, then: The cytotoxicity of the macrocyclic hybrids 15–24, as well as their conjugates 15-Rhod to 24-Rhod, was examined using a standard MTT assay in human epithelial cervix carcinoma (HeLa) cells. […] ([Mosmann, 1983]; [Tolosa et al., 2015]) After treatment of HeLa cells with different concentrations of the respective macrocycles 15–24 (0.50─50 µM) for 72 h, no significant cytotoxic effects were observed. […] As shown by many research groups that Rhodamine B by itself is not efficiently entering the cells showing therefore an LD50 > 50 μM, we assume that this the toxicity of the Rhodamine moiety might be higher when increasingly localizing in the mitochondria to a higher amount.
In a 96-well plate (Corning® Costar® 3596 96-Well Cell Culture Cluster), 1.0 × 10^4 HeLa-cells per well of a 96 well plate were cultivated for 16 h. Stock solutions of the single compounds in dimethylsulfoxide were diluted to 0.50 µm, 5.00 µm, and 50.0 µm with cell culture medium (DMEM + 10% FBS + 1% P/S) to ensure a final concentration of DMSO below 0.5%. 100 µL of the prepared DMEM diluted compounds were added to each well and the cells were incubated for 72 h. All experiments were performed in triplicates. Cells that were solely treated with the culture medium containing 0.5% of DMSO served as a negative control. After incubation, the positive control (cells in DMSO plus 0.5% DMSO) was treated with 1% Triton-X. To determine the viability of the cells 20 µL of a freshly prepared solution of 3-(4,5-dimethylthiazol-2-yl)-2,5-diphenyltetrazolium bromide (MTT, 2.73 mg/mL, Sigma-Aldrich®) in culture medium were added to each well and incubated at 37 °C for 4 h. The reaction was stopped using 100 µL of Solubilization Solution / Stop Mix (CellTiter 96® Non-Radioactive Cell Proliferation Assay, Promega). After 24 h, the absorption (A) of every well at 595 nm was monitored using a 96-well plate reader (Ultra Microplate Reader ELx808, Biotech Instruments Inc.).

Another data set has as its system HeLa cells. Briefly: Localization assay: cellular uptake and organellar localization by confocal microscopy. It counts as cell-based, human. Conditions: 5 µM, 5 h, 37 °C; for Cellular uptake efficiency: confocal microscopy of Rhodamine B fluorescence (Exc 532 nm, Em 570–620 nm); for Organellar localization (mitochondria): counterstaining with MitoTracker Green, confocal microscopy. The method, then:
As 15-Rhod to 24-Rhod were not toxic at 5 µM the following transport experiments were carried out using this concentration. To study their cellular uptake and organellar localization, HeLa cells were treated with 5 µM of the cyclic conjugates 15-Rhod to 24-Rhod for 5 h and eventually imaged using confocal microscopy (for experimental details, see supplemental Material).
FIGURE 4 Localization of the macrocyclic conjugates 15-Rhod to 24-Rhod in HeLa cells. After incubation with a 5.0 µM solution of the respective transporters for 5 h, the cellular uptake was monitored via fluorescent confocal microscopy (Rhodamine B labeled hybrids: λ Exc = 532 nm, λ Em = 570–620 nm; MitoTracker® Green: λ Exc = 488 nm, λ Em = 490–540 nm; Hoechst 33,342: λ Exc = 405 nm, λ Em = 430–490 nm). Counterstaining with MitoTracker® Green visualized mitochondria (green). Staining with 2 μg/ml Hoechst 33,342 indicated nuclei (blue). Scale bar: 10 µm.
In an 8-well chamber slide (µ-Slide 8-Well ibidiTreat, ibidi®), 1.0 × 10^4 HeLa cells per well were cultivated for 16 h. The cyclic hybrids were diluted with DMEM to yield a 5 µM concentration. The cells were treated with the hybrids for 5 h at 37 °C. To monitor the intracellular localization, the cells were counterstained with MitoTracker® (Invitrogen) and 2 µg/mL Hoechst 33342. After washing with DPBS (3 ×), the luminescence was monitored via life-cell imaging using a Leica TCS-SPE confocal microscope (DM2500 inverse microscope, 8 Bit resolution, 1024 × 1024 pixels), equipped with a 1 Airy pinhole aperture (111.5 µm), ACS APO 63.0x/1.30 OIL UV and 40x/1.14 OIL UV objectives and the images were processed by the Leica Application Suite (LAS-AF) Version 2.1.2 build 4530 software. Images were taken with a scanning frequency of 400 Hz. Background noise was averaged by an eight-fold repetition of the scan process. The cyclic hybrids were excited at 532 nm, MitoTracker® Green at 488 nm, and Hoechst 33342 at 405 nm. The exposure was set to minimize oversaturated pixels in the final images. Fluorescence emission was measured at 570–620 nm for the detection of rhodamine B labeled hybrids, at 490–540 nm for the detection of mitochondria, and 430–490 nm for the detection of nuclei.

The compound `CCCCN1CC(=O)N(Cc2ccccc2)CC(=O)N(CCCCNC(=O)c2ccccc2-c2c3ccc(=[N+](CC)CC)cc-3oc3cc(N(CC)CC)ccc23)CC(=O)N[C@@H](Cc2ccccc2)C1=O` [17-Rhod, cyclo-(l-Phe-N3m-N1ph-N4am(Rhod))] (cyclo(F[NBuGly][Nphe][Nlys](RhodamineB))) returned an IC50 at 72 h in the data set “in vitro” of over 50 µM.

For `NCCCC[C@@H]1NC(=O)CN(Cc2ccccc2)C(=O)CN(Cc2ccccc2)C(=O)[C@H](Cc2c[nH]c3ccccc23)NC1=O` [compound 19, cyclo-(l-Trp-N1ph-N1ph-l-Lys)] (cyclo(KW[Nphe][Nphe])), the IC50 at 72 h in the data set “in vitro” is over 50 µM.

For `NCCCCN1CC(=O)N[C@@H](Cc2ccccc2)C(=O)N(Cc2ccccc2)CC(=O)N(Cc2ccccc2)CC1=O` [compound 15, cyclo-(l-Phe-N1ph-N1ph-N4am)] (cyclo(F[Nphe][Nphe][Nlys])), the IC50 at 72 h in the data set “in vitro” was over 50 µM.

Consider `CCCCN1CC(=O)N(Cc2ccccc2)CC(=O)N(CCCCN)CC(=O)N[C@@H](Cc2ccccc2)C1=O` [compound 17, cyclo-(l-Phe-N3m-N1ph-N4am)] (cyclo(F[NBuGly][Nphe][Nlys])), for which the half-inhibitory concentration (IC50) at 72 h in the data set “in vitro” was over 50 µM.

In the case of `NCCCCN1CC(=O)N(Cc2ccccc2)CC(=O)N[C@@H](Cc2ccccc2)C(=O)N(Cc2ccc(Cl)cc2)CC1=O` [compound 16, cyclo-(l-Phe-N1ph^pCl-N4am-N1ph)] (cyclo(F[Gly(Nα-4-Cl-benzyl)][Nlys][Nphe])), the IC50 at 72 h in the data set “in vitro” was over 50 µM.

`CCN(CC)c1ccc2c(-c3ccccc3C(=O)NCCCCN3CC(=O)N(Cc4ccc(Cl)cc4)CC(=O)N(Cc4ccc(Cl)cc4)CC(=O)N(Cc4ccc(Cl)cc4)CC(=O)N[C@@H](Cc4ccccc4)C(=O)N[C@@H](Cc4ccccc4)C3=O)c3ccc(=[N+](CC)CC)cc-3oc2c1` [23-Rhod, cyclo-(l-Phe-N1ph^pCl-N1ph^pCl-N1ph^pCl-N4am(Rhod)-l-Phe)] (cyclo(F[Nlys](RhodamineB)[Gly(Nα-4-Cl-benzyl)][Gly(Nα-4-Cl-benzyl)][Gly(Nα-4-Cl-benzyl)]F)) returned an IC50 at 72 h in “in vitro” of 6 µM. Besides, in the data set with HeLa cells, the Cellular uptake efficiency result was “significantly less efficient” and the “Organellar localization (mitochondria)” value is reported as “Mitochondrial accumulation”.

In “in vitro”, `NCCCCN1CC(=O)N(Cc2ccccc2)CC(=O)N[C@@H](Cc2ccc(O)cc2)C(=O)N[C@@H](Cc2ccccc2)C1=O` [compound 18, cyclo-(l-Phe-N4am-N1ph-l-Tyr)] (cyclo(F[Nlys][Nphe]Y)) registered an IC50 at 72 h of over 50 µM.

The compound `CCN(CC)c1ccc2c(-c3ccccc3C(=O)NCCCCN3CC(=O)N(Cc4ccccc4)CC(=O)N[C@@H](Cc4ccccc4)C(=O)N(Cc4ccc(Cl)cc4)CC3=O)c3ccc(=[N+](CC)CC)cc-3oc2c1` [16-Rhod, cyclo-(l-Phe-N1ph^pCl-N4am(Rhod)-N1ph)] (cyclo(F[Gly(Nα-4-Cl-benzyl)][Nlys](RhodamineB)[Nphe])) displayed an IC50 at 72 h in “in vitro” of 30 µM.

Regarding `CCCCN1CC(=O)N(Cc2ccccc2)CC(=O)N(CCCCN)CC(=O)N[C@@H](Cc2ccccc2)C(=O)N[C@@H](Cc2ccccc2)C(=O)N(CCCC)CC1=O` [compound 24, cyclo-(l-Phe-N3m-N3m-N1ph-N4am-l-Phe)] (cyclo(FF[NBuGly][NBuGly][Nphe][Nlys])), the IC50 at 72 h in the data set “in vitro” was over 50 µM.

As for `NCCCCN1CC(=O)N[C@@H](Cc2ccccc2)C(=O)N[C@@H](Cc2ccccc2)C(=O)N(Cc2ccc(Cl)cc2)CC(=O)N(Cc2ccc(Cl)cc2)CC(=O)N(Cc2ccc(Cl)cc2)CC1=O` [compound 23, cyclo-(l-Phe-N1ph^pCl-N1ph^pCl-N1ph^pCl-N4am-l-Phe)] (cyclo(FF[Gly(Nα-4-Cl-benzyl)][Gly(Nα-4-Cl-benzyl)][Gly(Nα-4-Cl-benzyl)][Nlys])), the IC50 at 72 h in “in vitro” came to 20 µM.

Regarding `NCCCCN1CC(=O)N[C@@H](Cc2ccccc2)C(=O)N[C@@H](Cc2ccccc2)C(=O)N(Cc2ccccc2)CC(=O)N(Cc2ccccc2)CC(=O)N(Cc2ccccc2)CC1=O` [compound 22, cyclo-(l-Phe-N1ph-N1ph-N1ph-N4am-l-Phe)] (cyclo(FF[Nphe][Nphe][Nphe][Nlys])), the IC50 at 72 h in the data set “in vitro” was over 50 µM.

On to `CCN(CC)c1ccc2c(-c3ccccc3C(=O)NCCCCN3CC(=O)N[C@@H](Cc4ccccc4)C(=O)N(Cc4ccccc4)CC(=O)N(Cc4ccccc4)CC3=O)c3ccc(=[N+](CC)CC)cc-3oc2c1` [15-Rhod, cyclo-(l-Phe-N1ph-N1ph-N4am(Rhod))] (cyclo(F[Nphe][Nphe][Nlys](RhodamineB))), for which the IC50 at 72 h in the data set “in vitro” is over 50 µM.

Compound `CCN(CC)c1ccc2c(-c3ccccc3C(=O)NCCCCN3CC(=O)N[C@@H](Cc4ccc(O)cc4)C(=O)N[C@@H](Cc4ccccc4)C(=O)N(Cc4ccccc4)CC3=O)c3ccc(=[N+](CC)CC)cc-3oc2c1` [18-Rhod, cyclo-(l-Phe-N4am(Rhod)-N1ph-l-Tyr)] (cyclo(F[Nphe][Nlys](RhodamineB)Y)) showed an IC50 at 72 h in “in vitro” of 33 µM. In the data set with HeLa cells, the Cellular uptake efficiency result is reported as “not internalized”.

Take `CCCCN1CC(=O)N[C@@H](CCCCN)C(=O)N[C@@H](Cc2ccc(O)cc2)C(=O)N(CCCC)CC1=O` [compound 21, cyclo-(l-Tyr-N3m-N3m-l-Lys)] (cyclo(KY[NBuGly][NBuGly])): in “in vitro”, the IC50 at 72 h is over 50 µM.

Regarding `NCCCC[C@@H]1NC(=O)CN(Cc2ccc(Cl)cc2)C(=O)CN(Cc2ccc(Cl)cc2)C(=O)[C@H](Cc2c[nH]c3ccccc23)NC1=O` [compound 20, cyclo-(l-Trp-N1ph^pCl-N1ph^pCl-l-Lys)] (cyclo([Gly(Nα-4-Cl-benzyl)][Gly(Nα-4-Cl-benzyl)]KW)), the IC50 at 72 h in the data set “in vitro” is over 50 µM.

In turn, `CCN(CC)c1ccc2c(-c3ccccc3C(=O)NCCCC[C@@H]3NC(=O)CN(Cc4ccccc4)C(=O)CN(Cc4ccccc4)C(=O)[C@H](Cc4c[nH]c5ccccc45)NC3=O)c3ccc(=[N+](CC)CC)cc-3oc2c1` [19-Rhod, cyclo-(l-Trp-N1ph-N1ph-l-Lys(Rhod))] (cyclo(K(RhodamineB)W[Nphe][Nphe])) came in with an IC50 at 72 h in “in vitro” of 34 µM.

Take `CCCCN1CC(=O)N[C@@H](Cc2ccccc2)C(=O)N[C@@H](Cc2ccccc2)C(=O)N(CCCCNC(=O)c2ccccc2-c2c3ccc(=[N+](CC)CC)cc-3oc3cc(N(CC)CC)ccc23)CC(=O)N(Cc2ccccc2)CC(=O)N(CCCC)CC1=O` [24-Rhod, cyclo-(l-Phe-N3m-N3m-N1ph-N4am(Rhod)-l-Phe)] (cyclo(F[Nlys](RhodamineB)[Nphe][NBuGly][NBuGly]F)): in the data set “in vitro”, 26 µM corresponded to half-maximal inhibition (IC50 at 72 h). In addition, in the data set on HeLa cells, the Cellular uptake efficiency result is reported as “efficiently taken up; also recorded: high cellular uptake efficiency” and the “Organellar localization (mitochondria)” value is listed as “mitochondrial specificity”.

On to `CCCCN1CC(=O)N[C@@H](CCCCNC(=O)c2ccccc2-c2c3ccc(=[N+](CC)CC)cc-3oc3cc(N(CC)CC)ccc23)C(=O)N[C@@H](Cc2ccc(O)cc2)C(=O)N(CCCC)CC1=O` [21-Rhod, cyclo-(l-Tyr-N3m-N3m-l-Lys(Rhod))] (cyclo(K(RhodamineB)Y[NBuGly][NBuGly])), for which the midpoint of inhibition in “in vitro”, the IC50 at 72 h, lay at 36 µM.

`CCN(CC)c1ccc2c(-c3ccccc3C(=O)NCCCC[C@@H]3NC(=O)CN(Cc4ccc(Cl)cc4)C(=O)CN(Cc4ccc(Cl)cc4)C(=O)[C@H](Cc4c[nH]c5ccccc45)NC3=O)c3ccc(=[N+](CC)CC)cc-3oc2c1` [20-Rhod, cyclo-(l-Trp-N1ph^pCl-N1ph^pCl-l-Lys(Rhod))] (cyclo([Gly(Nα-4-Cl-benzyl)][Gly(Nα-4-Cl-benzyl)]K(RhodamineB)W)) gave an IC50 at 72 h in the data set “in vitro” of over 50 µM.
